Results taken from ChEMBL document CHEMBL3864189, “Carboxamide Spleen Tyrosine Kinase (Syk) Inhibitors: Leveraging Ground State Interactions To Accelerate Optimization” (ACS Med Chem Lett, 2016).
The source made the active and inactive calls. The calls are words filed in the database; no cut-off is given here.

What was measured:
Salmonella typhimurium [1] = test: Genotoxicity in Salmonella typhimurium TA97a in presence of rat s9 fraction by Ames test; type: toxicity, organism-based; conditions: salmonella enterica subsp. enterica serovar typhimurium
[2] = Unbound plasma clearance in po dosed rat; type: ADME, organism-based; conditions: in vivo
Rattus norvegicus = test: Antiarthritic activity in collagen-induced arthritis rat model at 3 mg/kg, po administered qd; type: functional, organism-based
Salmonella typhimurium [3] = test: Genotoxicity in Salmonella typhimurium TA97a by Ames test; type: toxicity, organism-based; conditions: salmonella enterica subsp. enterica serovar typhimurium
[4] = molecular target: T1, Tyrosine-protein kinase SYK (Homo sapiens, UniProt P43405); test: Inhibition of GST-tagged full length human SYK (1 to 635 end residues) expressed in baculovirus expression system preincubated for 10 mins followed by Blk/Lyntide substrate and ATP addition measured after 45 mins TR-FRET assay
[5] = molecular target: T1, Tyrosine-protein kinase SYK; test: Inhibition of GST-tagged full length human SYK (1 to 635 end residues) expressed in baculovirus expression system at 10 uM preincubated for 10 mins followed by Blk/Lyntide substrate and ATP addition measured after 45 mins TR-FRET assay relative to control
[6] = Oral bioavailability in rat; type: ADME, organism-based; conditions: in vivo

Structure (SMILES): C[C@H](N)CNc1cnc(C(N)=O)c(-c2cc3ccccc3o2)n1
- Activity (Salmonella typhimurium [1]): Non-Toxic

Structure (SMILES): NC(=O)c1ncc(N[C@@H]2CCCC[C@@H]2N)cc1COc1ccccc1
- Activity (Salmonella typhimurium [1]): Non-Toxic

Structure (SMILES): C[C@H](N)CNc1cnc(C(N)=O)c(-c2cc3ccccc3[nH]2)n1
- Activity (Salmonella typhimurium [1]): Non-Toxic

Structure (SMILES): COc1cccc2[nH]c(-c3nc(N[C@@H]4CCOC[C@@H]4N)cnc3C(N)=O)cc12
- Activity (Salmonella typhimurium [1]): Non-Toxic
- CL free [2]: 100 mL/min/kg

Structure (SMILES): Cc1cc(C)nc(Nc2cc(N[C@@H]3CCCC[C@@H]3N)cnc2C(N)=O)c1
- Activity (Rattus norvegicus): Active
- Activity (Salmonella typhimurium [3]): Toxic
- CL free [2]: 710 mL/min/kg

Structure (SMILES): NC(=O)c1ncc(N[C@@H]2CCCC[C@@H]2N)cc1/C=C/c1ccccc1
- Activity (Salmonella typhimurium [1]): Non-Toxic

Structure (SMILES): C[C@H](N)CNc1cnc(C(N)=O)c(-c2cnn(C)c2)n1
- Activity (Salmonella typhimurium [1]): Non-Toxic

Structure (SMILES): Cn1cc(-c2cc(N[C@@H]3CCCC[C@@H]3N)cnc2C(N)=O)cn1
- IC50 [4]: > 10 µM
- Activity (Salmonella typhimurium [1]): Non-Toxic
- inhibition [5]: 9%

Structure (SMILES): NC(=O)c1ncc(N[C@@H]2CCCC[C@@H]2N)nc1-c1cc2ccccc2[nH]1
- bioavailability [6]: 19%
- Activity (Salmonella typhimurium [1]): Non-Toxic
- CL free [2]: 255 mL/min/kg

Structure (SMILES): NC(=O)c1ncc(N[C@@H]2CCCC[C@@H]2N)cc1C#Cc1ccccc1
- Activity (Salmonella typhimurium [1]): Non-Toxic
